Measurements as given in the supplement of paper PMC13380429.
± gives the standard deviation of the averaged measurements.

How the values were obtained:
Settings in all cases: 72 h
HepG2 [1] = test: cell viability relative to DMSO; higher = less toxic
U2OS [2] = test: as above
Calu-3 [3] = test: as above
Vero E6 [4] = test: as above
Caco-2 [5] = test: as above
HepG2 [6] = test: drug sensitivity score (DSS) for viability; higher = more toxic; extreme values may be limits of the assay
U2OS [7] = test: as above
Calu-3 [8] = test: as above
Vero E6 [9] = test: as above
Caco-2 [10] = test: as above
HepG2 [11] = test: relative viability EC50 (midpoint between 100% and the lowest measured viability); higher = less toxic
U2OS [12] = test: as above
Calu-3 [13] = test: as above
Vero E6 [14] = test: as above
Caco-2 [15] = test: as above

Structure (SMILES) | cell viability (HepG2 [1]; 1 nM) [%] | cell viability (HepG2 [1]; 10 nM) [%] | cell viability (HepG2 [1]; 100 nM) [%] | cell viability (HepG2 [1]; 1000 nM) [%] | cell viability (HepG2 [1]; 10000 nM) [%] | cell viability (U2OS [2]; 1 nM) [%] | cell viability (U2OS [2]; 10 nM) [%] | cell viability (U2OS [2]; 100 nM) [%] | cell viability (U2OS [2]; 1000 nM) [%] | cell viability (U2OS [2]; 10000 nM) [%] | cell viability (Calu-3 [3]; 1 nM) [%] | cell viability (Calu-3 [3]; 10 nM) [%] | cell viability (Calu-3 [3]; 100 nM) [%] | cell viability (Calu-3 [3]; 1000 nM) [%] | cell viability (Calu-3 [3]; 10000 nM) [%] | cell viability (Vero E6 [4]; 1 nM) [%] | cell viability (Vero E6 [4]; 10 nM) [%] | cell viability (Vero E6 [4]; 100 nM) [%] | cell viability (Vero E6 [4]; 1000 nM) [%] | cell viability (Vero E6 [4]; 10000 nM) [%] | cell viability (Caco-2 [5]; 1 nM) [%] | cell viability (Caco-2 [5]; 10 nM) [%] | cell viability (Caco-2 [5]; 100 nM) [%] | cell viability (Caco-2 [5]; 1000 nM) [%] | cell viability (Caco-2 [5]; 10000 nM) [%] | drug sensitivity score (HepG2 [6]) | drug sensitivity score (U2OS [7]) | drug sensitivity score (Calu-3 [8]) | drug sensitivity score (Vero E6 [9]) | drug sensitivity score (Caco-2 [10]) | relative viability EC50 (HepG2 [11]) [µM] | relative viability EC50 (U2OS [12]) [µM] | relative viability EC50 (Calu-3 [13]) [µM] | relative viability EC50 (Vero E6 [14]) [µM] | relative viability EC50 (Caco-2 [15]) [µM]
Cc1ccc2c(c1)[C@]13CCCC[C@@H]1[C@H](C2)N(C)CC3 [dimemorfan] | 105 | 103 | 99 | 95.3 | 101 | 96.8 | 102 | 95.7 | 101 | 93.7 | 89.1 | 95.5 | 89.1 | 89.2 | 98.7 | 101 | 103 | 104 | 98.7 | 106 | 93.5 | 96.5 | 94.6 | 103 | 91.8 | 0 | 0 | 0 | 0 | 0 | > 10 | > 10 | > 10 | > 10 | > 10
Fc1ccc2nc(CCC#Cc3ccccn3)cn2c1 [dipraglurant] | 99.9 | 99.8 | 103 | 104 | 106 | 100 | 97.3 | 95.3 | 93.9 | 99.9 | 92.1 | 100 | 95.2 | 99.4 | 88 | 94.8 | 100 | 91.6 | 93.3 | 110 | 102 | 94.2 | 106 | 99.5 | 99.3 | 0 | 0 | 0.1 | 0 | 0 | > 10 | > 10 | > 10 | > 10 | > 10
OCC(O)CN1CCN(c2ccccc2)CC1 (stereo not given) [dropropizine] | 94.8 ± 4.6 | 101 ± 4.9 | 102 ± 1.6 | 99.5 ± 3.2 | 88.9 ± 5.2 | 99.9 ± 5 | 97.3 ± 4.9 | 100.5 ± 0.49 | 97.7 ± 0.14 | 102.8 ± 0.35 | 106 ± 1.6 | 97.85 ± 0.64 | 104 ± 4.5 | 99.6 ± 1.3 | 97.85 ± 0.21 | 96.6 ± 7.5 | 95.8 ± 1.5 | 94.2 ± 8.5 | 96.7 ± 6.7 | 103 ± 8.4 | 89.7 ± 5 | 85.2 ± 12 | 97.8 ± 2.9 | 91.9 ± 0.57 | 96.3 ± 9.9 | 0.1 ± 0.14 | 0 | 0 | 0 | 0 | > 10 | > 10 | > 10 | > 10 | > 10
CCN(CC)CCOc1ccccc1C(=O)CCc1ccccc1 [etafenone] | 98.6 | 90.6 | 106 | 94.7 | 94.3 | 94.8 | 101 | 97.9 | 103 | 103 | 96.9 | 99 | 106 | 108 | 101 | 93.2 | 93 | 101 | 91.8 | 102 | 93.3 | 104 | 94 | 103 | 100 | 0 | 0 | 0 | 0 | 0 | > 10 | > 10 | > 10 | > 10 | > 10
CCOC(=O)c1ccccc1OC(N)=O [ethyl-2-(carbamoyloxy)benzoate] | 106 | 87.2 | 94.2 | 83.5 | 103 | 98.6 | 103 | 100 | 102 | 98.6 | 93.2 | 92.5 | 98 | 122 | 103 | 109 | 91.4 | 102 | 106 | 103 | 104 | 91.5 | 97.1 | 106 | 96.9 | 0 | 0 | 0 | 0 | 0 | > 10 | > 10 | > 10 | > 10 | > 10
CC(C)=CCC/C(C)=C/CC/C(C)=C/CSc1ccccc1C(N)=O [farnesyl-thiosalicylic-acid-amide] | 100 | 105 | 96.6 | 108 | 85.7 | 98.9 | 100 | 105 | 98.3 | 102 | 106 | 92.4 | 108 | 105 | 111 | 89.8 | 101 | 92.8 | 87.1 | 99.7 | 104 | 116 | 95 | 116 | 104 | 0.1 | 0 | 0 | 0 | 0 | > 10 | > 10 | > 10 | > 10 | > 10
COC(=O)/C=C/c1cccc(N(Cc2ccc(-c3ccc(N(C)C)cc3)cc2)C(=O)C2CCCCC2)c1 [fexaramine] | 105 | 104 | 97.4 | 101 | 83.5 | 103 | 97.5 | 99.9 | 97 | 88.5 | 110 | 95.4 | 104 | 96.5 | 92.3 | 107 | 103 | 99.4 | 98.3 | 88.8 | 104 | 99.9 | 104 | 92 | 81.1 | 0.3 | 0.1 | 0 | 0.1 | 1.3 | > 10 | > 10 | > 10 | > 10 | > 10
Fc1ccc(C(c2ccc(F)cc2)N2CCN(C/C=C/c3ccccc3)CC2)cc1 [flunarizine] | 106 | 102 | 106 | 96.3 | 82.8 | 96.1 | 101 | 97.7 | 98.4 | 88.8 | 95.8 | 98.9 | 96.5 | 95.8 | 87.4 | 104 | 103 | 107 | 102 | 92.3 | 99.8 | 102 | 104 | 103 | 81.6 | 0.8 | 0.1 | 0 | 0 | 0.3 | > 10 | > 10 | > 10 | > 10 | > 10
CC(=O)[C@@]1(O)CC[C@H]2[C@@H]3C[C@H](C)C4=CC(=O)C=C[C@]4(C)[C@@]3(F)[C@@H](O)C[C@@]21C [fluorometholone] | 96.3 | 96.7 | 101 | 90.8 | 96.9 | 96.4 | 97.9 | 91.1 | 97 | 92.3 | 93.2 | 98.3 | 94.1 | 92.5 | 87.9 | 105 | 101 | 102 | 97.5 | 101 | 94.1 | 96.2 | 96.4 | 99.7 | 124 | 0 | 0 | 0 | 0 | 0 | > 10 | > 10 | > 10 | > 10 | > 10
COc1ccc(CC(C)NCC(O)c2ccc(O)c(NC=O)c2)cc1 (stereo not given) [formoterol] | 101 | 89.4 | 98.5 | 93.7 | 105 | 95.5 | 102 | 97.2 | 105 | 97.8 | 99.3 | 101 | 101 | 88.1 | 92.4 | 93.9 | 91.5 | 97.2 | 95.3 | 104 | 96 | 90.2 | 93.4 | 100 | 98.5 | 0 | 0 | 0.5 | 0 | 0 | > 10 | > 10 | > 10 | > 10 | > 10
C#C[C@]1(O)C=C[C@H]2[C@@H]3CCC4=CC(=O)CC[C@@H]4[C@H]3CC[C@@]21CC [gestodene] | 103 | 102 | 111 | 105 | 99.7 | 96.3 | 99.2 | 94.3 | 96 | 102 | 95.9 | 101 | 101 | 88.5 | 108 | 95.9 | 96.8 | 96.3 | 94.3 | 106 | 90.1 | 89.6 | 98.9 | 100 | 98.7 | 0 | 0 | 0 | 0 | 0 | > 10 | > 10 | > 10 | > 10 | > 10
CC(C)=CCC[C@](C)(O[C@@H]1O[C@H](CO)[C@@H](O)[C@H](O)[C@H]1O)[C@H]1CC[C@]2(C)[C@@H]1[C@H](O)C[C@@H]1[C@@]3(C)CC[C@H](O[C@@H]4O[C@H](CO)[C@@H](O)[C@H](O)[C@H]4O[C@@H]4O[C@H](CO)[C@@H](O)[C@H](O)[C@H]4O)C(C)(C)[C@@H]3CC[C@]12C [ginsenoside-RD] | 94.2 | 97.3 | 101 | 88.9 | 89.6 | 102 | 98.9 | 101 | 100 | 102 | 105 | 103 | 101 | 107 | 99.8 | 99.6 | 101 | 97.2 | 100 | 99.3 | 105 | 98.7 | 94.4 | 92.3 | 104 | 0.3 | 0 | 0 | 0 | 0 | > 10 | > 10 | > 10 | > 10 | > 10
CN1CC[C@@H](NC(=O)Nc2ccc(C#N)cc2)C[C@@H]1c1nc2ccccc2[nH]1 [glasdegib] | 108 | 99 | 99.1 | 96.2 | 92 | 96.3 | 102 | 94.9 | 98.5 | 98.3 | 92.6 | 110 | 96.9 | 111 | 104 | 102 | 103 | 102 | 100 | 97.1 | 98.4 | 96.5 | 94.1 | 97.1 | 83.5 | 0 | 0 | 0 | 0 | 0.6 | > 10 | > 10 | > 10 | > 10 | > 10
